Reference: the supplement of paper PMC12592484

How the values were obtained:
Assay in all cases: drug sensitivity score (DSS2, normalised partial AUC of dose-response, 72 h CellTiter-Glo viability) (DSS (dimensionless)); higher = more sensitive (stronger growth inhibition / cytotoxicity); extreme values may be limits of the assay
22Rv1 = test system: 22Rv1
Procedure, shortened: (§1)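 In BREEZE, the drug sensitivity score was derived as a partial area under a fitted logistic dose–response curve over the log of that curve's upper asymptote; a higher score marks a more sensitive response. The input came from low-passage primary prostate cancer-associated fibroblasts, PF179T, WPMY-1, LNCaP and 22Rv1 cells, each seeded into 384-well plates with compounds pre-dispensed at five doses spanning a 10,000-fold range. CellTiter-Glo 2.0 luminescence after 72 h gave viability, which was normalized to vehicle and positive-control wells.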

CAF#1 = test system: CAF#1 (primary prostate cancer-associated fibroblasts of myCAF-like type)
Procedure, shortened: as §1

CAF#2 = test system: CAF#2 (primary prostate cancer-associated fibroblasts of iCAF-like type)
Procedure, shortened: as §1

CAF#3 = test system: CAF#3 (primary prostate cancer-associated fibroblasts of myCAF-like type)
Procedure, shortened: as §1

CAF#4 = test system: CAF#4 (primary prostate cancer-associated fibroblasts of iCAF-like type)
Procedure, shortened: as §1

CAF#5 = test system: CAF#5 (primary prostate cancer-associated fibroblasts of myCAF-like type)
Procedure, shortened: as §1

CAF#6 = test system: CAF#6 (primary prostate cancer-associated fibroblasts of iCAF-like type)
Procedure, shortened: as §1

CAF#7 = test system: CAF#7 (primary prostate cancer-associated fibroblasts of myCAF-like type)
Procedure, shortened: as §1

LNCAP = test system: LNCAP
Procedure, shortened: as §1

PF179T = test system: PF179T
Procedure, shortened: as §1

WPMY-1 = test system: WPMY-1
Procedure, shortened: as §1

SMILES | drug sensitivity score (22Rv1) | drug sensitivity score (CAF#1) | drug sensitivity score (CAF#2) | drug sensitivity score (CAF#3) | drug sensitivity score (CAF#4) | drug sensitivity score (CAF#5) | drug sensitivity score (CAF#6) | drug sensitivity score (CAF#7) | drug sensitivity score (LNCAP) | drug sensitivity score (PF179T) | drug sensitivity score (WPMY-1)
CC[C@@H]1C(=O)OC[C@@H]1Cc1cncn1C [Pilocarpine] (tested concentration range 4-40000 nM) | 0 | 0.8 | 0 | 0 | 0 | 1.5 | 0 | 0 | 0 | 0 | 0
CC(C)N(C[C@H]1O[C@@H](n2cnc3c(N)ncnc32)[C@H](O)[C@@H]1O)[C@H]1C[C@@H](CCc2nc3cc(C(C)(C)C)ccc3[nH]2)C1 [Pinometostat] (tested concentration range 0.1-1000 nM) | 0 | 0 | 0 | 1.5 | 0 | 0 | 0 | 0 | 0 | 0 | 0
Cc1ccc(=O)n(-c2ccccc2)c1 [Pirfenidone] (tested concentration range 1-10000 nM) | 0 | 0 | 0 | 0 | 0 | 0 | 0 | 0 | 0 | 0 | 0
Nc1cccc2c1C(=O)N(C1CCC(=O)NC1=O)C2=O (stereo unspecified) [Pomalidomide] (tested concentration range 1-10000 nM) | 0 | 0 | 0 | 0 | 0 | 0 | 0 | 0 | 0 | 0 | 0
C=CC(=O)N1CCC(Oc2cc3c(Nc4ccc(Cl)c(Cl)c4F)ncnc3cc2OC)CC1 [Poziotinib] (tested concentration range 0.1-1000 nM) | 0.5 | 0 | 0 | 0.3 | 0 | 0 | 0 | 0 | 3.9 | 0 | 1
CCCCc1nc2cc(/C=C/C(=O)NO)ccc2n1CCN(CC)CC [Pracinostat] (tested concentration range 1-10000 nM) | 20 | 10.7 | 13.7 | 9 | 10.6 | 10.3 | 9.2 | 8.4 | 20.3 | 9.9 | 20
CC[C@H](C)C(=O)O[C@H]1C[C@H](O)C=C2C=C[C@H](C)[C@H](CC[C@@H](O)C[C@@H](O)CC(=O)O)[C@H]21 [Pravastatin] (tested concentration range 1-10000 nM) | 0 | 0 | 0.3 | 0 | 0 | 0 | 0 | 0 | 0 | 0 | 0
C[C@]12C=CC(=O)C=C1CC[C@@H]1[C@@H]2[C@@H](O)C[C@@]2(C)[C@H]1CC[C@]2(O)C(=O)CO [Prednisolone] (tested concentration range 1-10000 nM) | 0 | 0 | 0 | 0 | 0 | 0 | 0 | 0 | 0 | 0 | 0
COc1cccc(OCCCN)c1-c1cc(Nc2cnc(C#N)cn2)n[nH]1 [Prexasertib] (tested concentration range 1-10000 nM) | 24.4 | 8.6 | 16.6 | 4.9 | 8.7 | 9.1 | 6.8 | 5.4 | 24.3 | 14.5 | 29.7
CC(C)(C)c1cc(NC(=O)Nc2ccc(-c3cn4c(n3)sc3cc(OCCN5CCOCC5)ccc34)cc2)no1 [Quizartinib] (tested concentration range 0.1-1000 nM) | 0 | 0.3 | 2.3 | 0 | 0 | 1.5 | 0 | 0 | 0 | 0 | 1.4
Nc1cc(F)ccc1NC(=O)/C=C/c1cnn(C/C=C/c2ccccc2)c1 [RGFP966] (tested concentration range 1-10000 nM) | 1.8 | 3.1 | 3.2 | 2.6 | 3.3 | 3.1 | 2.1 | 2.7 | 8.3 | 3.8 | 2.2
COC(=O)c1ccc([C@H]2c3[nH]c4ccccc4c3C[C@H](C(=O)OC)N2C(=O)CCl)cc1 [RSL3] (tested concentration range 1-10000 nM) | 0 | 0.7 | 3 | 2.5 | 0 | 0.3 | 0.6 | 9.5 | 0.9 | 0 | 0
Cc1cn(-c2cc(NC(=O)c3ccc(C)c(Nc4nccc(-c5cnccn5)n4)c3)cc(C(F)(F)F)c2)cn1 [Radotinib] (tested concentration range 1-10000 nM) | 0 | 0.5 | 0 | 0 | 0.1 | 0 | 0 | 0 | 0.3 | 0 | 0
CC(C)(C)Cn1c(N)nc2ccc(-c3[nH]c(C(C)(C)C)nc3-c3ccc(F)cc3)nc21 [Ralimetinib] (tested concentration range 1-10000 nM) | 3.8 | 0.8 | 1.9 | 2.1 | 0.1 | 0 | 0.1 | 0 | 11.2 | 0 | 2.8
O=C(c1ccc(OCCN2CCCCC2)cc1)c1c(-c2ccc(O)cc2)sc2cc(O)ccc12 [Raloxifene] (tested concentration range 1-10000 nM) | 2.9 | 0 | 0.7 | 2.4 | 0.5 | 0.2 | 0.4 | 0.5 | 2.9 | 0.8 | 5.8
Cc1nc(=O)c2cc(CN(C)c3ccc(C(=O)N[C@@H](CCC(=O)O)C(=O)O)s3)ccc2[nH]1 [Raltitrexed] (tested concentration range 0.1-1000 nM) | 0 | 3.3 | 4.4 | 0 | 0.8 | 2.8 | 0.2 | 0 | 11.1 | 0.3 | 14
CNC(=O)c1cc(Oc2ccc(NC(=O)Nc3ccc(Cl)c(C(F)(F)F)c3)c(F)c2)ccn1 [Regorafenib] (tested concentration range 1-10000 nM) | 6 | 2.8 | 3.4 | 3.7 | 2.4 | 3.2 | 1 | 2.7 | 7.2 | 1.9 | 3.8
CCOC(=O)C1=CCCC[C@H]1S(=O)(=O)Nc1ccc(F)cc1Cl [Resatorvid] (tested concentration range 1-10000 nM) | 0 | 0 | 0 | 5.7 | 0 | 0 | 3.6 | 0.3 | 0.4 | 0 | 0
CCOCc1nc2c(N)nc3ccccc3c2n1CC(C)(C)O [Resiquimod] (tested concentration range 1-10000 nM) | 0 | 0 | 0.4 | 0 | 0 | 0 | 0 | 0 | 0 | 0 | 0
CN(C)Cc1ccc(S(=O)(=O)n2ccc(/C=C/C(=O)NO)c2)cc1 [Resminostat] (tested concentration range 1-10000 nM) | 12.3 | 4.4 | 5.9 | 6 | 6 | 4.6 | 5.9 | 4.7 | 12.2 | 6 | 13.6
CN(C)C(=O)c1cc2cnc(Nc3ccc(N4CCNCC4)cn3)nc2n1C1CCCC1 [Ribociclib] (tested concentration range 1-10000 nM) | 5 | 0 | 4.6 | 2.9 | 2.7 | 2.5 | 2.4 | 3 | 7.7 | 3.7 | 0
C=CC(=O)Nc1cccc(Nc2nc(Nc3ccc(N4CCN(C(C)=O)CC4)cc3OC)ncc2C(F)(F)F)c1 [Rociletinib] (tested concentration range 0.5-5000 nM) | 6 | 6.6 | 8.3 | 2.1 | 6.8 | 5.2 | 2.6 | 4 | 2.6 | 5 | 7
C/C=C1\NC(=O)[C@H]2CSSCC/C=C/[C@H](CC(=O)N[C@H](C(C)C)C(=O)N2)OC(=O)[C@H](C(C)C)NC1=O [Romidepsin] (tested concentration range 0.1-1000 nM) | 27.9 | 23.1 | 23.4 | 23.1 | 21.4 | 25 | 26.6 | 24.4 | 35.5 | 22.5 | 30
Cc1nc(C(=O)NCC(=O)O)c(O)c2ccc(Oc3ccccc3)cc12 [Roxadustat] (tested concentration range 1-10000 nM) | 0 | 0 | 0 | 0 | 0 | 0.2 | 0 | 0 | 0 | 0 | 0
CN(C)C[C@@H]1CCn2cc(c3ccccc32)C2=C(C(=O)NC2=O)c2cn(c3ccccc23)CCO1 [Ruboxistaurin] (tested concentration range 1-10000 nM) | 9.6 | 8.4 | 6.6 | 8.9 | 8.4 | 6.8 | 6.8 | 5.9 | 8.2 | 8.4 | 8.4
CNCc1ccc(-c2[nH]c3cc(F)cc4c3c2CCNC4=O)cc1 [Rucaparib] (tested concentration range 1-10000 nM) | 4.6 | 0.8 | 2.3 | 0 | 3.8 | 0 | 0.5 | 2.9 | 4.8 | 3.7 | 1.8
